In US10342796B2, “Acrylanilide derivative, preparation method, and applications thereof in pharmacy” (Ancureall Pharmaceutical (Shanghai) Co., Ltd., priority 2015, dated 2019) one finds GI50 data, which are given here for ten compounds.

Holding throughout (assay): Growth inhibition GI50 in vitro (CCK8/MTT, 72 h)
What all share (type): cell-based, human

The test system of one assay is SK-BR-3 (Her2 amp). The conditions noted are these: Homo sapiens, SK-BR-3; HER2 positive cell line; range of GI50; read-out: GI50 SK-BR-3. On the procedure:
Human lung adenocarcinoma cell line Calu-3 (ATCC) was cultured with 1×MEM complete medium (10% FBS, 1% double-antibiotics, 1% NEAA (Gibco), 2 mM glutamine and 1 mM of sodium pyruvate). Human breast cancer cell line SK-BR-3 was cultured with McCOY'S5A complete medium (10% FBS). Human colon cancer cell line SNU1040 (HER2 V777M positive) (ATCC) and human bronchoalveolar adenocarcinoma cell line NCI-H1781 (expressing HER2 exon 20 G776VC mutation) (ATCC) were cultured with 1×RPMI1640 complete medium (10% FBS), respectively.
The suspension cells were collected by centrifugation. The supernatant was discard and the cell pellet was resuspended and counted. Different cell concentrations (5˜10×10^4 cells/mL) were prepared according to the growth cycle of each cell line and then seeded on a 96-well plate (Corning), 100 μL/well. The cells were incubated over night at 37° C., 5% CO2. The compounds were added to the cells on the second day with 2 wells in parallel. The final concentration of organic solvent shall not exceed 1%. The cells were continually incubated for 72 h, and then subjected to MTT assay.
The present compounds and the reference compounds were dissolved with DMSO (Sigma), respectively. […] The storage concentration of compounds was 10 mM and kept at −20° C. They were diluted by 2 times or 10 times with serial dilution before using.
Dojindo CCK8 reagent kit was used as MTT assay. […] FC meter was used as microplate reader.
Adherent cell culture medium was discard and immediately replaced with fresh prepared medium which contains 10% CCK8 reagent (100 μL/well). For the suspension cells, CCK8 was directly added to 10% of the final concentration. The cells were continually incubated for 1˜4 h. When the color of control wells turned to dark yellow, the absorption value was measured at OD450 nm. The cell growth rate was calculated according to the following formula: cell growth rate (%)=100*(T−T0)/(C−T0), T=optical density of drug treatment cell well—optical density of blank control well; T0=optical density of cell well before drug treatment—optical density of blank control well; C=optical density of cell well of solvent control group—optical density of blank control well. […] The experiment was independently repeated 1˜3 times, and subject to biological statistical analysis.

Assay [1] deals with H460 (EGFR wt, Kras G61H). The conditions noted are these: Homo sapiens, NCI-H460; EGFR wild type cell line; range of GI50; read-out: GI50 H460.
For the next assay, the system named is A549 (EGFR WT). Conditions: Homo sapiens, A549; EGFR wild type cell line; range of GI50; read-out: GI50 A549.
In assay [2] the test system is A431 (EGFR WT, amplification and high expression). The conditions noted are these: Homo sapiens, A-431; EGFR wild type cell line; range of GI50; read-out: GI50 A431.
The subject of assay [3] is H1299 (EGFR wt, Nras Q61K). The conditions noted are these: Homo sapiens, NCI-H1299; EGFR wild type cell line; range of GI50; read-out: GI50 H1299.
Another assay concerns AU565 (Her2 amp). Conditions: Homo sapiens, AU565; HER2 positive cell line; range of GI50; read-out: GI50 AU-565.
A further assay relates to PC-9 (EGFR dE746-A750). The conditions noted are these: Homo sapiens; EGFR mutant cell line; range of GI50; read-out: GI50 PC-9.
In assay [4] the test system is PC-9ER (EGFR delE746-A750/T790M). The conditions noted are these: Homo sapiens, PC-9/ER; EGFR mutant cell line; range of GI50; read-out: GI50 PC9ER.
A further assay has as its system HCC827 (EGFR dE746-A750). The conditions noted are these: Homo sapiens, HCC827; EGFR mutant cell line; range of GI50; read-out: GI50 HCC827.
For the next assay, the system named is H1975 (EGFR L858R/T790M). Conditions: Homo sapiens, NCI-H1975; EGFR mutant cell line; range of GI50; read-out: GI50 H1975.
The next assay deals with N87 (HER2 Amp). Conditions: Homo sapiens; HER2 positive cell line; range of GI50; read-out: GI50 N87.

As usually defined, the GI50 is the concentration giving 50% growth inhibition. Turning to `C=CC(=O)Nc1cc(Nc2nccc(-n3cc(C)c4ccccc43)n2)c(OC)cc1N(C)CCN(C)C` [Compound 57, N-(5-(4-(3-methyl-1H-indol-1-yl)-pyrimidin-2-ylamino)-2-(2-(dimethylamino-ethyl)-methyl-amino)-4-methoxyl-phenyl)-acrylamide], the GI50 is 0.1 to 1 µM with SK-BR-3 (Her2 amp); > 1 µM in assay [1]; > 1 µM with A549 (EGFR WT); 0.1 to 1 µM in assay [2]; > 1 µM in [3]; 0.1 to 1 µM with AU565 (Her2 amp). In addition, the GI50 in the assay on PC-9 (EGFR dE746-A750) fell in the range of 0.1 to 1 µM; in assay [4], 0.01 to 0.1 µM; in the assay on HCC827 (EGFR dE746-A750) it was 0.01 to 0.1 µM; in the assay with H1975 (EGFR L858R/T790M), 0.01 to 0.1 µM; in the assay on N87 (HER2 Amp), 0.1 to 1 µM.
Take `C=CC(=O)Nc1cc(Nc2nccc(-n3ccc4ccc(Br)cc43)n2)c(OC)cc1N(C)CCN(C)C` [Compound 62, N-(5-(4-(6-bromo-1H-indol-1-yl)-pyrimidin-2-ylamino)-2-((2-(dimethylamino)ethyl)-methyl-amino)-4-methoxyl-phenyl)-acrylamide]: the 50% growth inhibitory concentration (GI50) in the assay with SK-BR-3 (Her2 amp) is 0.01 to 0.1 µM; in assay [1], > 1 µM; in the assay on A549 (EGFR WT) it was > 1 µM; in assay [2] it was 0.1 to 1 µM; in [3], > 1 µM; in the assay with AU565 (Her2 amp) it was 0.01 to 0.1 µM. Besides, the GI50 was 0.01 to 0.1 µM in the assay with PC-9 (EGFR dE746-A750); 0.01 to 0.1 µM in assay [4]; < 0.01 µM in the assay with HCC827 (EGFR dE746-A750); 0.01 to 0.1 µM in the assay with H1975 (EGFR L858R/T790M); 0.01 to 0.1 µM in the assay on N87 (HER2 Amp).
Regarding `C=CC(=O)Nc1cc(Nc2nccc(-n3ccc4cc(F)c(F)cc43)n2)c(OC)cc1N(C)CCN(C)C` [Compound 103, N-(5-(4-(5,6-difluoro-1H-indol-1-yl)-pyrimidin-2-ylamino)-2-(2-(dimethylamino-ethyl)-methyl-amino)-4-methoxyl-phenyl)-acrylamide], the GI50 in the assay on SK-BR-3 (Her2 amp) was 0.1 to 1 µM; in [1], > 1 µM; with A549 (EGFR WT) it was > 1 µM; in assay [2] it was 0.1 to 1 µM; in [3], > 1 µM; in the assay on AU565 (Her2 amp), 0.1 to 1 µM. Also, the GI50 (in the assay on PC-9 (EGFR dE746-A750); in assay [4]; in the assay on HCC827 (EGFR dE746-A750); with H1975 (EGFR L858R/T790M); in the assay with N87 (HER2 Amp)) was 0.01 to 0.1 µM throughout.
Turning to `C=CC(=O)Nc1cc(Nc2cc(Nc3ccc(F)c(Cl)c3)ncn2)c(OC)cc1N1CCN(C)CC1` [Compound 145, N-(5-(6-(3-chloro-4-fluoro-phenylamino)-pyrimidin-4-ylamino)-4-methoxyl-2-(4-methyl-piperazin-1-yl)-phenyl)-acrylamide], the GI50 with SK-BR-3 (Her2 amp) was 0.01 to 0.1 µM; in assay [1], > 1 µM; with A549 (EGFR WT), > 1 µM; in assay [2] it was 0.01 to 0.1 µM; in assay [3] it was > 1 µM; with AU565 (Her2 amp), 0.01 to 0.1 µM. Further, the GI50 in the assay with PC-9 (EGFR dE746-A750) is < 0.01 µM; in [4] it was < 0.01 µM; in the assay on HCC827 (EGFR dE746-A750), < 0.01 µM; in the assay on H1975 (EGFR L858R/T790M), 0.01 to 0.1 µM; in the assay on N87 (HER2 Amp), < 0.01 µM.
For the compound `C=CC(=O)Nc1cc(Nc2ncnc(Nc3ccc(F)c(Cl)c3)n2)c(OC)cc1N(C)CCN(C)C` [Compound 109, N-(5-(4-(3-chloro-4-fluoro-phenylamino)-[1,3,5]triazin-2-ylamino)-2-((2-dimethylamino-ethyl)-methyl-amino)-4-methoxyl-phenyl)-acrylamide], the GI50 was 0.01 to 0.1 µM with SK-BR-3 (Her2 amp); > 1 µM in [1]; > 1 µM in the assay with A549 (EGFR WT); 0.1 to 1 µM in assay [2]; > 1 µM in assay [3]; 0.01 to 0.1 µM in the assay with AU565 (Her2 amp). In addition, the GI50 (in the assay with PC-9 (EGFR dE746-A750); in [4]; in the assay with HCC827 (EGFR dE746-A750); in the assay with H1975 (EGFR L858R/T790M); with N87 (HER2 Amp)) was 0.01 to 0.1 µM throughout.
Take `C=CC(=O)Nc1cc(Nc2cc(-c3cn(CCC)c4ccccc34)ncn2)c(OC)cc1N(C)CCN(C)C` [Compound 182]: the GI50 is 0.01 to 0.1 µM in the assay with SK-BR-3 (Her2 amp); > 1 µM in [1]; > 1 µM in the assay with A549 (EGFR WT); 0.1 to 1 µM in assay [2]; > 1 µM in [3]; 0.01 to 0.1 µM in the assay on AU565 (Her2 amp). The GI50 fell in the range of 0.01 to 0.1 µM in the assay on PC-9 (EGFR dE746-A750); 0.01 to 0.1 µM in assay [4]; 0.01 to 0.1 µM in the assay on HCC827 (EGFR dE746-A750); 0.01 to 0.1 µM in the assay on H1975 (EGFR L858R/T790M); 0.1 to 1 µM with N87 (HER2 Amp).
As to `C=CC(=O)Nc1cc(Nc2cc(-c3cn(C)c4ccc(F)cc34)ncn2)c(OC)cc1N(C)CCN(C)C` [Compound 188, N-(2-((2-dimethylamino-ethyl)-methylamino)-5-(6-(5-fluoro-1-methyl-1H-indol-3-yl)-pyrimidin-4-ylamino)-4-methoxyl-phenyl)-acrylamide], the GI50 with SK-BR-3 (Her2 amp) is < 0.01 µM; in [1] it was > 1 µM; in the assay on A549 (EGFR WT), > 1 µM; in assay [2], 0.1 to 1 µM; in assay [3] it was > 1 µM; with AU565 (Her2 amp), 0.01 to 0.1 µM. The GI50 with PC-9 (EGFR dE746-A750) was < 0.01 µM; in [4], < 0.01 µM; in the assay on HCC827 (EGFR dE746-A750), < 0.01 µM; with H1975 (EGFR L858R/T790M) it was 0.01 to 0.1 µM; in the assay with N87 (HER2 Amp), 0.01 to 0.1 µM.
On to `C=CC(=O)Nc1cc(Nc2nccc(Nc3cccc(Br)c3)n2)c(OC)cc1N(C)CCN(C)C` [Compound 1, N-(5-(4-(3-bromophenylamino)-pyrimidin-2-ylamino)-2-(2-(dimethylamino-ethyl)-methyl-amino)-4-methoxyl-phenyl)-acrylamide], for which the GI50 in the assay with SK-BR-3 (Her2 amp) is 0.01 to 0.1 µM; in [1], > 1 µM; in the assay on A549 (EGFR WT), > 1 µM; in [2], 0.1 to 1 µM; in [3], > 1 µM; in the assay with AU565 (Her2 amp) it was 0.01 to 0.1 µM. The GI50 is 0.01 to 0.1 µM in the assay on PC-9 (EGFR dE746-A750); 0.01 to 0.1 µM in [4]; < 0.01 µM in the assay on HCC827 (EGFR dE746-A750); 0.01 to 0.1 µM in the assay on H1975 (EGFR L858R/T790M); 0.01 to 0.1 µM with N87 (HER2 Amp).
For the compound `C=CC(=O)Nc1cc(Nc2cc(Nc3ccc(F)c(Cl)c3)ncn2)c(OC)cc1N1CCC(N2CCOCC2)CC1` [Compound 143, N-(5-(6-(3-chloro-4-fluoro-phenylamino)-pyrimidin-4-ylamino)-4-methoxyl-2-(4-morpholin-4-yl-piperidin-1-yl)-phenyl)-acrylamide], the GI50 is < 0.01 µM in the assay on SK-BR-3 (Her2 amp); > 1 µM in assay [1]; > 1 µM in the assay with A549 (EGFR WT); 0.01 to 0.1 µM in assay [2]; > 1 µM in assay [3]; < 0.01 µM in the assay on AU565 (Her2 amp). Moreover, the GI50 (in the assay on PC-9 (EGFR dE746-A750); in [4]; in the assay on HCC827 (EGFR dE746-A750); with H1975 (EGFR L858R/T790M); with N87 (HER2 Amp)) was < 0.01 µM in each case.
Consider `C=CC(=O)Nc1cc(Nc2cc(-c3cn(C)c4ccccc34)ncn2)c(OC)cc1N1CCN(CCN2CCCC2)CC1` [Compound 165, N-(4-methoxyl-5-(6-(1-methyl-1H-indol-3-yl)-pyrimidin-4-ylamino)-2-(4-(2-(pyrrolidin-1-yl)-ethyl)-piperazin-1-yl)-phenyl)-acrylamide], for which the GI50 was 0.1 to 1 µM with SK-BR-3 (Her2 amp); > 1 µM in [1]; > 1 µM in the assay on A549 (EGFR WT); 0.01 to 0.1 µM in assay [2]; > 1 µM in [3]; 0.1 to 1 µM with AU565 (Her2 amp). Further, the GI50 in the assay with PC-9 (EGFR dE746-A750) is < 0.01 µM; in assay [4], 0.01 to 0.1 µM; with HCC827 (EGFR dE746-A750), 0.01 to 0.1 µM; in the assay with H1975 (EGFR L858R/T790M), 0.1 to 1 µM; in the assay with N87 (HER2 Amp), 0.1 to 1 µM.
